Key:
Acute toxicity = type: in vivo; settings: mouse, in vivo, ip, mice; for LD50 at 168 h: 7 days observation; for selectivity ratio: (LD50)/(ED50 of Muscle relaxant effect), i.p., read-out: Safety index
Procedure: (§1) Male mice of STD-ddY strain, weighing 23 to 25 g, were used in groups of 10 animals. The test compounds, suspended or dissolved in 0.5% tragacanth solution, were intraperitoneally administered at a volume of 0.1 ml/10 g body weight. After the administration, the mice were kept for 7 days, and observed for death. The median lethal dose (LD50), the dose which caused death in 50% of animals, were calculated according to the method of Litchfield and Wilcoxon.

mice = test: Acute toxicity; type: in vivo
Procedure: as §1

muscle relaxation = test: Muscle relaxant effect (Traction test); type: in vivo, Male mice of STD-ddY strain; settings: for ED50: Mus musculus, ip, 0.25 h, i.p., mice, 15 minutes after administration
Procedure: Traction test was used as an index of the muscle relaxation. Male mice of STD-ddY strain, weighing 20 to 25 g, were used in groups of 5 animals. The test compounds, suspended or dissolved in 0.5% tragacanth solution, were intraperitoneally administered at a volume of 0.1 ml/10 g body weight, and 15 minutes after the administration the muscle relaxant effects were examined according to the method of Courvoisier et al (cf. "Psychotropic Drugs", ed. by Garattini, S. and Ghetti, V., Elsevier Pub. Co., Amsterdam, 1957, page 373). The animal was suspended by their forelimbs on a horizontal metal bar with a diameter of 2 mm. The rod was 18 cm above the floor. The animals which could not put their hindlimb on the rod within 5 seconds were judged as a positive (all-or-nothing way). The median effective dose (ED50), the dose which caused the positive effects in 50% of animals, were calculated according to the method of Litchfield and Wilcoxon.

[1] = tested on: anemic decerebrate rigidity (α-rigidity); test: Effect on anemic decerebrate rigidity (α-rigidity), EMG activity of M. triceps brachii, cumulative i.v. injection; type: in vivo, Male rats of Wistar strain; settings: for ED50: Rattus norvegicus, iv, 5 min, cumulative 1.25-20 mg/kg, dose reducing EMG activity to 50%; for ED50 / α-Rigidity reducing effect Duration: rats; for α-Rigidity reducing effect Duration: time from disappearance to reappearance of EMG activities after total dose of 20 mg/kg, i.v.
Procedure: Anemic decerebrate rigidity is known to be a model showing the abnormal hypertonia. This model was prepared according to the method of Fukuda et al [cf. Japan. J. Pharmacol. 24, 810-813 (1974)]. Male rats of Wistar strain, weighing 250 to 350 g, were used in groups of 5 animals. Under the ether anesthesia, the animal was fixed on its back. After the oesophagus and bilateral common carotid arteries were exposed, the trachea was cannulated and the oesophagus was cut between two placed ligatures. The occipital bone was exposed. The common carotid arteries were ligated bilaterally and a trephined opening was made in the central part of the bone. The dura matter was cut along the basilar artery, and the artery was cauterized with a coagulator of bipolar pincette electrodes (Micro-ID made by Mizuhoika Kogyo Co., Ltd., Japan). After the operation, anesthesia was discontinued. The marked rigidity occurred in the forelimbs within 15 minutes after the operation.
The rat was placed on its back and the hindlimbs fixed. Electromyogram (EMG) was recorded by a coaxial needle electrode inserted into the Musculus triceps brachii of the forelimbs. Reference electrode was inserted into the hindlimb muscle. EMG activities obtained from the muscle were amplified, transformed into the square wave pulses with the window discriminator, and fed into integrator, the out-put of which was amplified and recorded by an inkwriting recorder.
The test compounds were dissolved in distilled water. After the EMG activities had remained stable over 15 to 30 minutes, the test compounds were cumulatively injected at a 5-minute interval into a cannulated femoral vein. The doses administered were 1.25 mg/kg, 2.5 mg/kg, 5.0 mg/kg, 10 mg/kg and finally 20 mg/kg. The EMG activities were expressed as a percentage of the pre-injection value, and the maximal effect within 5 minutes was measured in each dose. The median effective dose (ED50), the dose which reduced the EMG activity to 50%, was calculated by the method of Litchfield and Wilcoxon. In addition, the time from disappearance to reappearance of EMG activities after total dose of 20 mg/kg was expressed as the duration of the effect.

[2] = tested on: anemic decerebrate rigidity (α-rigidity); test: as above; type: in vivo, Male rats of Wistar strain

COc1ccc(C(=O)C(C)CN2CCCC2)c(C)c1C (stereo not drawn) [A, 1-(2,3-dimethyl-4-methoxyphenyl)-2-methyl-3-(1-pyrrolidinyl)-1-propanone]
LD50 at 168 h (Acute toxicity): 161 mg/kg
selectivity ratio (Acute toxicity): 2.35
safety index relative to Compound No. 1 (mice; vs Compound No. 1): about 1.8 times
safety index relative to Compound No. 3 (mice; vs Compound No. 3): about 1.5 times
safety index relative to Compound No. 6 (mice; vs Compound No. 6, in words): higher safety index
safety index relative to Compound No. 8 (mice; vs Compound No. 8, in words): higher safety index
ED50 (muscle relaxation): 68.5 mg/kg
potency in muscle relaxant activity relative to Compound No. 1 (muscle relaxation; vs Compound No. 1): about 2.3 times
potency in muscle relaxant activity relative to Compound No. 3 (muscle relaxation; vs Compound No. 3): ~2.3 times
potency in muscle relaxant activity relative to Compound No. 4 (muscle relaxation; vs Compound No. 4): ~1.8 times
ED50 [1]: 2.6 mg/kg
α-Rigidity reducing effect Duration [1]: 16.3 min
duration of action relative to Compound No. 1 ([1]; vs Compound No. 1): about 23 times
potency in the reducing activity of α-rigidity relative to Compound No. 1 ([1]; vs Compound No. 1): about 4.7 times
duration of action relative to Compound No. 2 ([1]; vs Compound No. 2): about 5.8 times
potency in the reducing activity of α-rigidity relative to Compound No. 2 ([1]; vs Compound No. 2): about 4.9 times
potency in α-rigidity reducing activity relative to Compound No. 3 ([1]; vs Compound No. 3): about 7.8 times
potency in α-rigidity reducing activity relative to Compound No. 4 ([1]; vs Compound No. 4): about 2.7 times
duration of action relative to Compound No. 5 ([1]; vs Compound No. 5): about 1.9 times
potency in the reducing activity of α-rigidity relative to Compound No. 5 ([1]; vs Compound No. 5): about 6 times
potency in the reducing activity of α-rigidity relative to Compound No. 6 ([1]; vs Compound No. 6): about 2.8 times
duration of action relative to Compound No. 6 ([1]; vs Compound No. 6, in words): somewhat longer
potency in the reducing activity of α-rigidity relative to Compound No. 7 ([1]; vs Compound No. 7): about 6.6 times
potency in the reducing activity of α-rigidity relative to Compound No. 8 ([1]; vs Compound No. 8): about 3.7 times
pharmacological activities relative to known analogous compound Nos. 1 to 5 ([1]; vs compound Nos. 1 to 5, overall conclusion from Tests 1-3): far greater
pharmacological activities relative to novel analogous compound Nos. 6 to 8 ([1]; vs compound Nos. 6 to 8, overall conclusion from Tests 1-3): fairly or far greater

COc1ccc(C(=O)C(C)CN2CCCCC2)c(C)c1C (stereo not drawn) [Compound 6]
LD50 at 168 h (Acute toxicity): 145 mg/kg
selectivity ratio (Acute toxicity): 1.87
ED50 (muscle relaxation): 77.7 mg/kg
ED50 [1]: 7.3 mg/kg
α-Rigidity reducing effect Duration [1]: 11.4 min

COc1ccc(C(=O)C(C)CN2CCCC2)c(C)c1C (stereo not drawn) [compound (I), 1-(2,3-dimethyl-4-methoxyphenyl)-2-methyl-3-(1-pyrrolidinyl)-1-propanone]
toxicity (mice; overall conclusion, in words): low toxicity
central muscle relaxant activities in comparison with the known compounds (muscle relaxation; overall conclusion, in words): highly improved, excellent

Cc1cc(C)c(C(=O)C(C)CN2CCCCC2)c(C)c1 (stereo not drawn) [Compound 4]
LD50 at 168 h (Acute toxicity): 156 mg/kg
selectivity ratio (Acute toxicity): 1.27
toxicity in rats [2]: high toxicity in rats
ED50 (muscle relaxation): 123 mg/kg
ED50 [1]: 6.9 mg/kg

Cc1ccc(C(=O)C(C)CN2CCCCC2)cc1C (stereo not drawn) [Compound 5]
LD50 at 168 h (Acute toxicity): 140 mg/kg
selectivity ratio (Acute toxicity): 2.36
ED50 (muscle relaxation): 59.3 mg/kg
ED50 [1]: 15.6 mg/kg
α-Rigidity reducing effect Duration [1]: 8.8 min

COc1ccc(C(=O)CCN2CCCC2)c(C)c1C [Compound 7]
LD50 at 168 h (Acute toxicity): 174 mg/kg
selectivity ratio (Acute toxicity): 2
ED50 (muscle relaxation): 87.1 mg/kg
ED50 [1]: 17.2 mg/kg

COc1ccc(C(=O)C(C)CN2CCCCC2)cc1OC (stereo not drawn) [Compound 3]
LD50 at 168 h (Acute toxicity): 247 mg/kg
selectivity ratio (Acute toxicity): 1.56
ED50 (muscle relaxation): 158 mg/kg
ED50 [1]: 20.2 mg/kg

Cc1ccc(C(=O)C(C)CN2CCCCC2)cc1 (stereo not drawn) [Compound 1, 2-methyl-1-p-methylphenyl-3-piperidino-1-propanone]
LD50 at 168 h (Acute toxicity): 210 mg/kg
selectivity ratio (Acute toxicity): 1.34
ED50 (muscle relaxation): 156 mg/kg
ED50 [1]: 12.3 mg/kg
α-Rigidity reducing effect Duration [1]: 0.7 min

CCc1ccc(C(=O)C(C)CN2CCCCC2)cc1 (stereo not drawn) [Compound 2]
LD50 at 168 h (Acute toxicity): 129 mg/kg
selectivity ratio (Acute toxicity): 2.01
ED50 (muscle relaxation): 64.2 mg/kg
ED50 [1]: 12.7 mg/kg
α-Rigidity reducing effect Duration [1]: 2.8 min

CCOc1ccc(C(=O)C(C)CN2CCCC2)c(C)c1C (stereo not drawn) [Compound 8]
LD50 at 168 h (Acute toxicity): 134 mg/kg
selectivity ratio (Acute toxicity): 1.78
ED50 (muscle relaxation): 75.5 mg/kg
ED50 [1]: 9.6 mg/kg
α-Rigidity reducing effect Duration [1]: 14.8 min
